Experimental data published in patent publication US5462725A, “2-pyridylmethylenepolyazamacrocyclophosphonic acids, complexes and derivatives thereof, for use as contrast agents” (priority 1993, dated 1995).
Where two headings read alike, the source gives them in different places.

Legend:
[1] = background; cited from earlier work
[2] = Biodistribution of 153Sm complex after tail vein injection; assay type: in vivo, Sprague Dawley rats; settings: rat, i.v. tail vein; for % INJECTED DOSE, Blood: blood assumed 6.5% of body weight; for % INJECTED DOSE, Bone: femur x 25; for % INJECTED DOSE, Muscle: muscle assumed 43% of body weight
Procedure: Sprague Dawley rats were allowed to acclimate for five days then injected with 100 μL of the complex solution via a tail vein. The rats weighed between 150 and 200 g at the time of injection. After 30 min. the rats were killed by cervical dislocation and dissected. The amount of radioactivity in each tissue was determined by counting in a NaI scintillation counter coupled to a multichannel analyzer. The counts were compared to the counts in 100 μL standards in order to determine the percentage of the dose in each tissue or organ.
The percent dose in blood was estimated assuming blood to be 6.5% of the total body weight. The percent dose in bone was estimated by multiplying the percent dose in the femur by 25. The percent dose in muscle was estimated assuming muscle to be 43% of the total body weight. The number of rats used in the average is n.
In addition to organ biodistribution, chelates of the compounds of Formula (I) were evaluated for efficiency of bone localization since phosphonates are known for their ability to bind to hydroxyapatite.
When the complex ^153 Sm[N-(2-pyridylmethyl)-N',N",N'"-tris(methylenephosphonic acid ethyl ester)-1,4,7,10-tetraazacyclododecane] The numbers represent the average of a minimum of 2 rats per data point at 2 hours post injection.
When the complex ^153 Sm[N-(2-pyridylmethyl)-N',N",N'"-tris(methylenephosphonic acid propyl ester)-1,4,7,10-tetraazacyclododecane] The numbers represent the average of a minimum of 3 rats per data point at 2 and 24 hours post injection.

[3] = in vivo; cited from earlier work
[4] = background; cited from earlier work; remark: listed apart in the source

SMILES | side effects / toxicity [1] | % Complex (pH 1) [%] | % Complex (pH 7) [%] | % Complex (pH 9) [%] | % Complex (pH 11) [%] | % Complex (pH 14) [%] | % INJECTED DOSE, Brain ([2]; 2 hours post injection) [% INJECTED DOSE] | % INJECTED DOSE, Heart ([2]; 2 hours post injection) [% INJECTED DOSE] | % INJECTED DOSE, Kidney ([2]; 2 hours post injection) [% INJECTED DOSE] | % INJECTED DOSE, Liver ([2]; 2 hours post injection) [% INJECTED DOSE] | % INJECTED DOSE, Lung ([2]; 2 hours post injection) [% INJECTED DOSE] | % INJECTED DOSE, Spleen ([2]; 2 hours post injection) [% INJECTED DOSE] | % INJECTED DOSE, Urine ([2]; 2 hours post injection) [% INJECTED DOSE] | % INJECTED DOSE, Blood ([2]; 2 hours post injection) [% INJECTED DOSE] | % INJECTED DOSE, Bone ([2]; 2 hours post injection) [% INJECTED DOSE] | % INJECTED DOSE, Muscle ([2]; 2 hours post injection) [% INJECTED DOSE] | % Complex (pH 3) [%] | % Complex (pH 5) [%] | distribution and elimination [3] | further results
[Cl][Gd]([Cl])[Cl] [GdCl3] | toxic to an animal |  |  |  |  |  |  |  |  |  |  |  |  |  |  |  |  |  |  | 
O=C([O-])CN1CCN(CC(=O)[O-])CCN(Cc2ccccn2)CCN(CC(=O)[O-])CC1.[153Sm+3] [^153 Sm-PD3A] |  | 98.30 | 99.86 | 99.86 | 99.80 | 99.96 |  |  |  |  |  |  |  |  |  |  |  |  |  | % Complex (pH 2): 99.38%; % Complex (pH 4): 99.62%
CCOP(=O)([O-])CN1CCN(Cc2ccccn2)CCN(CP(=O)([O-])OCC)CCN(CP(=O)([O-])OCC)CC1.[153Sm+3] [^153 Sm-PD3EP, ^153 Sm[N-(2-pyridylmethyl)-N',N",N'"-tris(methylenephosphonic acid ethyl ester)-1,4,7,10-tetraazacyclododecane]] |  | 78.95 | 93.77 | 95.89 | 95.77 | 94.07 | 0.01 | 0.01 | 1.24 | 0.36 | 0.02 | 0.01 | 97.00 | 0.45 | 0.82 | 0.62 | 93.80 | 93.02 |  | 
CNC[C@H](O)[C@@H](O)[C@H](O)[C@H](O)CO.CNC[C@H](O)[C@@H](O)[C@H](O)[C@H](O)CO.O=C([O-])CN(CCN(CC(=O)[O-])CC(=O)O)CCN(CC(=O)[O-])CC(=O)O.[Gd+3] [Magnevist™, complex of gadolinium with diethylenetriaminepentaacetic acid] |  |  |  |  |  |  |  |  |  |  |  |  |  |  |  |  |  |  | freely distribute in extracellular fluid followed by efficient elimination through the renal system | 
CC(O)CN1CCN(CC(=O)[O-])CCN(CC(=O)[O-])CCN(CC(=O)[O-])CC1.[Gd+3] (stereo not drawn) [Prohance™, [1,4,7-tris(carboxymethyl)-10-(2-hydroxypropyl)-1,4,7,10-tetraazacyclododecanato]gadolinium] | fewer side effects than Magnevist™ |  |  |  |  |  |  |  |  |  |  |  |  |  |  |  |  |  | freely distribute in extracellular fluid followed by efficient elimination through the renal system | kinetic stability of DO3A derivative chelates [4]: gains added kinetic stability by virtue of a pendant hydroxyl moiety
CCCOP(=O)([O-])CN1CCN(Cc2ccccn2)CCN(CP(=O)([O-])OCCC)CCN(CP(=O)([O-])OCCC)CC1.[153Sm+3] [^153 Sm-PD3PP, ^153 Sm[N-(2-pyridylmethyl)-N',N",N'"-tris(methylenephosphonic acid propyl ester)-1,4,7,10-tetraazacyclododecane]] |  | 72.52 | 95.06 | 95.22 | 92.74 | 87.65 | 0.04 | 0.04 | 0.86 | 20.36 | 0.20 | 1.19 | 50.00 | 0.68 | 5.93 | 0.82 | 87.56 | 92.99 |  | % INJECTED DOSE, Large Intestine ([2]; 2 hours post injection): 0.18 % INJECTED DOSE; % INJECTED DOSE, Small intestine ([2]; 2 hours post injection): 13.56 % INJECTED DOSE; % INJECTED DOSE, Stomach ([2]; 2 hours post injection): 1.39 % INJECTED DOSE; % INJECTED DOSE, Brain ([2]; 24 hours post injection): 0.00 % INJECTED DOSE; % INJECTED DOSE, Feces ([2]; 24 hours post injection): 5.33 % INJECTED DOSE; % INJECTED DOSE, Heart ([2]; 24 hours post injection): 0.02 % INJECTED DOSE; % INJECTED DOSE, Kidney ([2]; 24 hours post injection): 0.89 % INJECTED DOSE; % INJECTED DOSE, Large Intestine ([2]; 24 hours post injection): 0.16 % INJECTED DOSE; % INJECTED DOSE, Liver ([2]; 24 hours post injection): 2.31 % INJECTED DOSE; % INJECTED DOSE, Lung ([2]; 24 hours post injection): 0.40 % INJECTED DOSE; % INJECTED DOSE, Small intestine ([2]; 24 hours post injection): 0.13 % INJECTED DOSE; % INJECTED DOSE, Spleen ([2]; 24 hours post injection): 0.22 % INJECTED DOSE; % INJECTED DOSE, Stomach ([2]; 24 hours post injection): 0.04 % INJECTED DOSE; % INJECTED DOSE, Urine ([2]; 24 hours post injection): 83.00 % INJECTED DOSE; % INJECTED DOSE, Blood ([2]; 24 hours post injection): 0.03 % INJECTED DOSE; % INJECTED DOSE, Bone ([2]; 24 hours post injection): 12.39 % INJECTED DOSE; % INJECTED DOSE, Muscle ([2]; 24 hours post injection): 0.27 % INJECTED DOSE
